This note sets out measurements from paper PMC8148468, “Shikimic acid protects skin cells from UV-induced senescence through activation of the NAD+-dependent deacetylase SIRT1” (Aging (Albany NY), 2021).

Test [1] relates to H3K9ac (the target of SIRT1, SIRT2 and SIRT6). The experiment in a line: Sirtuin activity assay in HDF: H3K9ac levels (Western blot). The test is classed as cell-based, human. Conditions: UV conditions, -/+25mM SA -/+1μM EX-527.
Test [2] addresses T1, FLAG-SIRT1 purified from HEK293 cells (Homo sapiens, UniProt Q96EB6).
T1 construct: FLAG; made in house; host or cells: HEK293 (HEK293F)
T1 sequence (Q96EB6 1-747): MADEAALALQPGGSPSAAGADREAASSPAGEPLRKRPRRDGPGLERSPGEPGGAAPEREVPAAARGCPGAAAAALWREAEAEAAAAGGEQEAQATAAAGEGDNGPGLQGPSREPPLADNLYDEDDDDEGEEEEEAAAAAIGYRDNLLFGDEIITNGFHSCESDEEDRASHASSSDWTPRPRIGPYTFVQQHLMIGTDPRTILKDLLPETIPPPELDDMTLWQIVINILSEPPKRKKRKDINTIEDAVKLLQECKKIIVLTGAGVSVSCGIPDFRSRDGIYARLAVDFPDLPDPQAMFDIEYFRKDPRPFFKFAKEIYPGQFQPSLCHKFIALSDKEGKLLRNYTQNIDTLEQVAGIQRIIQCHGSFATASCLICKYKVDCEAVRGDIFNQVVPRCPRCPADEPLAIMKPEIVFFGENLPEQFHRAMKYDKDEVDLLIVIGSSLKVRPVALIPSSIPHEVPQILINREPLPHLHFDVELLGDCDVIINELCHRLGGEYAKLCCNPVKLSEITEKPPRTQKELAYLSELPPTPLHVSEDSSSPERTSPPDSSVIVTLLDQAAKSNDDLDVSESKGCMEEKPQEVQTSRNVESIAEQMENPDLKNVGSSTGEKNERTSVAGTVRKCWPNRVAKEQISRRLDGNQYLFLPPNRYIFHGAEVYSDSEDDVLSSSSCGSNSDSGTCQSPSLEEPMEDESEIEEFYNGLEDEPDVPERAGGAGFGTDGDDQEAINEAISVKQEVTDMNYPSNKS
Put plainly: In vitro SIRT1 deacetylation assay. Conditions: -/+ NAD+, Shikimic acid 1 μM-10mM. Type of test: biochemical. As to the method:
Figure 3 (A) Schematic representation of the protocol for senescence induction using UVB irradiation and study of EX527 involvement in the effect of Shikimic acid. Cells were treated with or without shikimic acid -/+ EX-527 from day 1 until day 7 after seeding, irradiated with UVB on days 2 and 5 and harvested for analysis on day 7. (B) Phase-contrast (left column) and bright field (right column) microscope images of β-Gal staining showing non-irradiated cells non-treated and treated with shikimic acid (10, 25 and 50 mM), UVB-irradiated cells non-treated and treated with shikimic acid (10, 25 and 50 mM), shikimic acid (10, 25 and 50 mM) + EX-527 1 μM and EX-527 1 μM. (C) Percentage of SA-β-Gal positive cells and (D) relative HAS2 mRNA levels in non-irradiated cells non-treated and treated with Shikimic acid (10, 25 and 50 mM), UVB-irradiated cells non-treated and treated with Shikimic acid (10, 25 and 50 mM), Shikimic acid (10, 25 and 50 mM) + EX-527 1 μM and EX-527 1 μM. (E) Percentage of SA-β-Gal as in (C) of SA 25 or 50mM upon siRNA mediated downregulation of SIRT1, SIRT2 or SIRT6. siScr: scramble siRNA. […] SIRT1 activity was then evaluated by analyzing acetylation of H3K9, H4K16 and p53K382 by Western blot. […]
The in vitro SIRT1 deacetylation assay was performed as previously described. […] Deacetylation was monitored by quantification of H3K9ac/H3, H4K16ac/H4 and p53K382ac/p53 levels.

As to `O=C(O)C1=C[C@@H](O)[C@@H](O)[C@H](O)C1` [Shikimic acid], the “H3K9ac/H3 levels under UV-induced senescence” value in test [1] is “induced increased deacetylation of H3K9ac and H4K16ac”. The “SIRT1 deacetylation activity in vitro (H3K9ac, H4K16ac, p53K382ac)” value in test [2] is recorded as “did not alter SIRT1 deacetylation activity in vitro”.
